{
  "source": "patent US20050085444A1",
  "about": "“Cosmetic or dermatological use of vitamin a or the esters thereof in combination with a partly methylated beta-cyclodextrin” (priority 2002, published 2005)",
  "settings": "fresh human skin with dermis, control/VAP gel and RAMEB/VAP gel, contact time 24 hours",
  "description": "The study is carried out using the Franz cells characterized above.\nAfter a contact time of 24 hours, the excess gel on the surface of the skin is washed off with the aid of cotton buds.\nThe cotton buds together with the upper part of the cell are immersed in 10 ml of isopropanol and ultrasonicated for 15 minutes and then stirred for 2 hours.\nThe solutions are diluted to 1/10 and filtered on a 0.2 μm filter before assaying.\nThe stratum corneum is collected by 7 successive strippings (pressure 300 g/cm^2, duration 12 s). The VAP is extracted by solubilization in 2 ml of methanol overnight at 4° C., followed by stirring for 2 hours and finally filtration on a 0.2 μm filter before assaying.\nWith the stratum corneum removed, the epidermis is separated from the dermis with the aid of a scalpel.\nThe VAP is extracted from the epidermis by solubilization of the latter in 1 ml of methanol overnight at 4° C., followed by stirring for 2 hours and finally filtration on a 0.2 μm filter before assaying.\nThe VAP assays are performed by HPLC.",
  "data": [
    {"compound": "CCC(=O)OC/C=C(C)/C=C/C=C(C)/C=C/C1=C(C)CCCC1(C)C", "note": "[VAP, vitamin A propionate]", "values": [
      {"measurement": "VAP detected in the reception liquid", "result": "No trace"}
    ]}
  ]
}
